# Data reported in publication PMC8102066 (eLife, 2021).
# “And” between values parts separate entries of the source, which are not always exact repeats. Equal entries are not always repeated. Where two headings read alike, the source gives them in different places.
# What was measured:
# [1] = biological target: T1, mGluR2-3xTM4_W (Rattus norvegicus, UniProt P31421, A677W/A681W/A685W); assay: Calcium imaging in HEK 293 T cells; type: cell-based; details: normalized to 1 mM glutamate, replicates
# T1 construct: expressed in transfected cells; host or cells: HEK 293 T
# Description: (§1) We tested this by introducing bulky, hydrophobic tryptophan residues into outward facing residues of TM4 to disrupt inter-subunit interaction.
# (§2) Approximately 30 ROIs were analyzed per movie.
# [2] = biological target: T2, mGluR3-3xTM4_W (Rattus norvegicus, UniProt P31422, F690W/G694W/S686W); assay: Calcium imaging in HEK 293 T cells; type: cell-based; details: for Calcium response amplitude: normalized to saturating glutamate
# T2 construct: expressed in transfected cells; host or cells: HEK 293 T
# Description: as §1, §2
# [3] = biological target: T3, mGluR2-A726S-G730I-A733T (Rattus norvegicus, UniProt P31421, A726S/A733T/G730I); assay: Calcium imaging in HEK 293 T cells; type: cell-based
# T3 construct: calcium imaging experiments with mutations in the full-length mGluR2 background; expressed in transfected cells; host or cells: HEK 293T
# Description: as §2
# [4] = biological target: T4, mGluR2-AA695SV (Rattus norvegicus, UniProt P31421, A695S/A696V); assay: Calcium imaging in HEK 293 T cells; type: cell-based
# T4 construct: calcium imaging experiments with mutations in the full-length mGluR2 background; expressed in transfected cells; host or cells: HEK 293T
# Description: as §2
# [5] = biological target: T5, mGluR2-F584I-G587T (Rattus norvegicus, UniProt P31421, F584I/G587T); assay: Calcium imaging in HEK 293 T cells; type: cell-based
# T5 construct: calcium imaging experiments with mutations in the full-length mGluR2 background; expressed in transfected cells; host or cells: HEK 293T
# Description: as §2
# [6] = biological target: T6, mGluR2-P778A (Rattus norvegicus, UniProt P31421, P778A); assay: Calcium imaging in HEK 293 T cells; type: cell-based
# T6 construct: we performed calcium imaging experiments with mutations in the full-length mGluR2 background; expressed in transfected cells; host or cells: HEK 293 T
# Description: as §2
# [7] = biological target: T7, mGluR2-I779W (Rattus norvegicus, UniProt P31421, I779W); assay: Calcium imaging in HEK 293 T cells; type: cell-based; set-up: scale not given here
# T7 construct: we performed calcium imaging experiments with mutations in the full-length mGluR2 background; expressed in transfected cells; host or cells: HEK 293 T
# Description: as §2
# [8] = biological target: T8, mGluR2-I779A (Rattus norvegicus, UniProt P31421, I779A); assay: Inter-TMD FRET sensor (HaloTag in ICL2), live cells; type: cell-based; details: for FRET response amplitude: mGluR2-I779A, inter-TMD FRET
# T8 construct: we performed calcium imaging experiments with mutations in the full-length mGluR2 background; expressed in transfected cells; host or cells: HEK 293 T
# Text: Next, we asked how perturbing the TM6 interface would alter the conformational dynamics detected by our TMD FRET sensors.
# [9] = biological target: T9, mGluR2-C121A-3xTM4 (Rattus norvegicus, UniProt P31421, A677S/A681F/A685G/C121A); assay: SiMPull subunit counting in the presence of ligands
# T9 construct: expressed in transfected cells; host or cells: HEK 293 T (detergent lysate, pulled down by anti-HA antibody)
# [10] = biological target: T10, mGluR2-C121A-I779A (Rattus norvegicus, UniProt P31421, C121A/I779A); assay: as above; details: SNAP-mGluR2-C121A-I779A in presence of the ligand; single replicates per experiment day
# T10 construct: expressed in transfected cells; host or cells: HEK 293 T (detergent lysate, pulled down by anti-HA antibody)
# [11] = biological target: T11, mGluR2-3xTM4 (Rattus norvegicus, UniProt P31421, A677S/A681F/A685G); assay: Inter-LBD FRET (N-terminal SNAP-tags), live cells; details: mGluR2-3xTM4, inter-LBD FRET
# [12] = biological target: mGluR3 (Rattus norvegicus, UniProt P31422); assay: Inter-LBD FRET (N-terminal SNAP-tags), live cells; details: for FRET response amplitude: mGluR3, inter-LBD FRET
# [13] = biological target: mGluR3-C127A (Rattus norvegicus, UniProt P31422, C127A); assay: SiMPull subunit counting in the presence of ligands
# [14] = biological target: T11, mGluR2-3xTM4; assay: Calcium imaging (G protein chimera, GCaMP6f) in HEK 293 T cells; details: normalized to 1 mM glutamate, replicates
# [15] = biological target: mGluR3-3xTM4 (Rattus norvegicus, UniProt P31422, F690A/G694A/S686A); assay: as above; details: for Calcium response amplitude: normalized to 1 mM glutamate, replicates
# mGluR3-3xTM4, sequence (P31422 23-879 S686A/F690A/G694A): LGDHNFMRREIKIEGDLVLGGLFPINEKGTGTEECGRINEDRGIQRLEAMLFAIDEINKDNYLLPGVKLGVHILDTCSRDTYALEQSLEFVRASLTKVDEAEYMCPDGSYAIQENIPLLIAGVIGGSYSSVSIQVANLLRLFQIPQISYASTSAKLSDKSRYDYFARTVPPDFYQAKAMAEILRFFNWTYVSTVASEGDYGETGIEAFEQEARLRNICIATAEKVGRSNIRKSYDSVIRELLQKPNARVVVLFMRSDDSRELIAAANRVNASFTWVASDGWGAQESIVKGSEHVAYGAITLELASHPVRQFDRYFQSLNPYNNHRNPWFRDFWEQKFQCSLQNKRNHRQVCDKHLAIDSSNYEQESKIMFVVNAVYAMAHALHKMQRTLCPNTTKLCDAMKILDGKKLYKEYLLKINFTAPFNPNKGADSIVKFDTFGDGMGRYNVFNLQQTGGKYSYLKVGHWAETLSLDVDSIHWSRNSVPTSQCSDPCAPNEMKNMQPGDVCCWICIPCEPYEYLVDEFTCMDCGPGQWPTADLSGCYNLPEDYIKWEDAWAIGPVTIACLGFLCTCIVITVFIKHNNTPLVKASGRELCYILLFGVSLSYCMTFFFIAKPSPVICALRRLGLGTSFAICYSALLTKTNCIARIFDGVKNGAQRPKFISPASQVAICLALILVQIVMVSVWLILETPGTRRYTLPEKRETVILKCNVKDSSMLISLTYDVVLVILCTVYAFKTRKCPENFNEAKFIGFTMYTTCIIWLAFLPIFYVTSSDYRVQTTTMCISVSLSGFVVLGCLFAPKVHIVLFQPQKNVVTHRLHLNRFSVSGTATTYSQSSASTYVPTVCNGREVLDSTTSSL
# mGluR3, sequence (P31422 23-879): as the sequence (P31422 23-879 S686A/F690A/G694A) above, with A664S, A668F, A672G counted along it
# T1 sequence (P31421 19-872 A677W/A681W/A685W): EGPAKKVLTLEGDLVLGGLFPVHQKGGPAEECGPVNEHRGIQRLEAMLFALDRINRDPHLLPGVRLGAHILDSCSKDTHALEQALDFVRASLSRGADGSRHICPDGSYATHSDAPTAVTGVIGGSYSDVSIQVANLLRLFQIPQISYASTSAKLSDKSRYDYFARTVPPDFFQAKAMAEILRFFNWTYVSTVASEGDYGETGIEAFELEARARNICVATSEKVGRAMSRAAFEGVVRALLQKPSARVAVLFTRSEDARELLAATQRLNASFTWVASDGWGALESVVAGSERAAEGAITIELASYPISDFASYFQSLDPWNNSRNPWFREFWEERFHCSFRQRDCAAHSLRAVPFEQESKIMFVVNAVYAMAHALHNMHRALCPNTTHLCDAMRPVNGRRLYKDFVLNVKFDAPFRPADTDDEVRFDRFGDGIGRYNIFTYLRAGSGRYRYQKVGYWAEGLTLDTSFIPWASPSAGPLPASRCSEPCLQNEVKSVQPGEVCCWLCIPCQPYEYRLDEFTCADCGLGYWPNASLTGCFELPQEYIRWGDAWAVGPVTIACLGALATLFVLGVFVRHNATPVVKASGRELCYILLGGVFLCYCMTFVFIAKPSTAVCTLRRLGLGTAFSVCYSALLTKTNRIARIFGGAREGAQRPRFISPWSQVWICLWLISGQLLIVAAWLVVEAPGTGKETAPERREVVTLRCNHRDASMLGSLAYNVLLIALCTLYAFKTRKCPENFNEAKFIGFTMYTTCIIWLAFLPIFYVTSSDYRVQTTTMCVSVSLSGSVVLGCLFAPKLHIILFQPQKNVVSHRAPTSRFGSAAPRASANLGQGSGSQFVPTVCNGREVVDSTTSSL
# mGluR3-C127A, sequence (P31422 23-879 C127A): as the sequence (P31422 23-879 S686A/F690A/G694A) above, with C105A, A664S, A668F, A672G counted along it
# T8 sequence (P31421 19-872 I779A): as the sequence (P31421 19-872 A677W/A681W/A685W) above, with W659A, W663A, W667A, I761A counted along it
# T6 sequence (P31421 19-872 P778A): as the sequence (P31421 19-872 A677W/A681W/A685W) above, with W659A, W663A, W667A, P760A counted along it
# T7 sequence (P31421 19-872 I779W): as the sequence (P31421 19-872 A677W/A681W/A685W) above, with W659A, W663A, W667A, I761W counted along it
# T5 sequence (P31421 19-872 F584I/G587T): as the sequence (P31421 19-872 A677W/A681W/A685W) above, with F566I, G569T, W659A, W663A, W667A counted along it
# T4 sequence (P31421 19-872 A695S/A696V): as the sequence (P31421 19-872 A677W/A681W/A685W) above, with W659A, W663A, W667A, A677S, A678V counted along it
# T9 sequence (P31421 19-872 C121A/A677S/A681F/A685G): as the sequence (P31421 19-872 A677W/A681W/A685W) above, with C103A, W659S, W663F, W667G counted along it
# T10 sequence (P31421 19-872 C121A/I779A): as the sequence (P31421 19-872 A677W/A681W/A685W) above, with C103A, W659A, W663A, W667A, I761A counted along it
# T2 sequence (P31422 23-879 S686W/F690W/G694W): as the sequence (P31422 23-879 S686A/F690A/G694A) above, with A664W, A668W, A672W counted along it
# T3 sequence (P31421 19-872 A726S/G730I/A733T): as the sequence (P31421 19-872 A677W/A681W/A685W) above, with W659A, W663A, W667A, A708S, G712I, A715T counted along it
# T11 sequence (P31421 19-872 A677S/A681F/A685G): as the sequence (P31421 19-872 A677W/A681W/A685W) above, with W659S, W663F, W667G counted along it
smiles,measurement,setting,value
N[C@@H](CCC(=O)O)C(=O)O [glutamate],Calcium response amplitude,[1]; Glutamate 100 nM,0.00
same,Calcium response amplitude,[1]; Glutamate 1 uM,0.00 and 0.08 and 0.04
same,Calcium response amplitude,[1]; Glutamate 10 uM,0.55 and 0.51
same,Calcium response amplitude,[1]; Glutamate 100 uM,1.00 and 0.99 and 0.76
same,Calcium response amplitude,[1]; Glutamate 1 mM,1.00
same,Calcium response amplitude,"[2]; Glutamate 10 nM, replicates",0.00
same,Calcium response amplitude,"[2]; Glutamate 100 nM, replicates",0.00
same,Calcium response amplitude,"[2]; Glutamate 1 uM, replicates",0.09 and 0.064 and 0.00
same,Calcium response amplitude,"[2]; Glutamate 10 uM, replicates",0.20 and 0.28 and 0.12 and 0.22
same,Calcium response amplitude,"[2]; Glutamate 100 uM, replicates",0.41 and 0.50
same,Calcium response amplitude,[2]; Glutamate 1 mM,0.86
same,Calcium response amplitude,[2]; Glutamate 10 mM,1.00
same,EC50,"[2]; read-out: Glutamate EC50, calcium imaging, normalized to saturating (1 mM) glutamate, unit inferred",186 ± 0.27 µM
same,Calcium response amplitude,[3]; Glutamate 100 nM,0.00
same,Calcium response amplitude,[3]; Glutamate 3 uM,0.71 and 0.60
same,Calcium response amplitude,[3]; Glutamate 10 uM,0.93 and 0.97 and 0.56
same,Calcium response amplitude,[3]; Glutamate 100 uM,1.00
same,Calcium response amplitude,[3]; Glutamate 1 mM,1.00
same,Calcium response amplitude,[4]; Glutamate 10 nM,0.00
same,Calcium response amplitude,[4]; Glutamate 100 nM,0.00
same,Calcium response amplitude,[4]; Glutamate 10 uM,0.72 and 0.97
same,Calcium response amplitude,[4]; Glutamate 100 uM,1.00
same,Calcium response amplitude,[4]; Glutamate 1 mM,1.00
same,Calcium response amplitude,[5]; Glutamate 100 nM,0.00
same,Calcium response amplitude,[5]; Glutamate 3 uM,0.62 and 0.57 and 0.48
same,Calcium response amplitude,[5]; Glutamate 10 uM,0.87 and 0.71
same,Calcium response amplitude,[6]; Glutamate concentration 100 nM,0.00
same,Calcium response amplitude,[6]; Glutamate concentration 1 uM,0.48 and 0.50
same,Calcium response amplitude,[6]; Glutamate concentration 10 uM,0.94 and 0.87
same,Calcium response amplitude,[6]; Glutamate concentration 1 mM,1.00
same,Calcium response amplitude,[7]; Glutamate concentration 10 nM,0.00
same,Calcium response amplitude,[7]; Glutamate concentration 5 uM,0.52 and 0.53
same,Calcium response amplitude,[7]; Glutamate concentration 10 uM,0.95 and 0.79 and 0.94 and 0.76
same,Calcium response amplitude,[7]; Glutamate concentration 100 uM,1.00
same,Calcium response amplitude,[7]; Glutamate concentration 1 mM,1.00
same,FRET response amplitude,[8]; Glutamate 10 nM,0.00
same,FRET response amplitude,[8]; Glutamate 100 nM,0.00
same,FRET response amplitude,[8]; Glutamate 1 uM,0.00
same,FRET response amplitude,[8]; Glutamate 100 uM,0.75 and 0.90 and 0.82
same,FRET response amplitude,[8]; Glutamate 1 mM,1.00
same,change in glutamate EC50 compared to mGluR2,"[8]; inter-TMD FRET sensor, right shift",two-fold
same,% Dimerization,"[9]; SNAP-mGluR2-C121A-3xTM4 in presence of the ligand, single replicates per experiment day",89.26% and 88.28% and 81.34% and 81.93% and 82.70% and 80.09%
same,effect of ligand on dimerization (SiMPull),[9]; saturating concentration,clear increase in dimerization
same,% Dimerization,[10],54.00% and 69.67% and 69.76% and 51.05% and 59.66% and 56.67%
same,FRET response amplitude,[11]; Glutamate 10 nM,0.00
same,FRET response amplitude,[11]; Glutamate 100 nM,0.00
same,FRET response amplitude,[11]; Glutamate 3 uM,0.10
same,FRET response amplitude,[11]; Glutamate 10 uM,0.49 and 0.37
same,FRET response amplitude,[11]; Glutamate 100 uM,1.00 and 0.97
same,FRET response amplitude,[11]; Glutamate 1 mM,1.00
same,FRET response amplitude,[12]; Glutamate 1 nM,0.00
same,FRET response amplitude,[12]; Glutamate 10 nM,0.00
same,FRET response amplitude,[12]; Glutamate 1 uM,0.66 and 0.53
same,FRET response amplitude,[12]; Glutamate 3 uM,1.00 and 0.63
same,FRET response amplitude,[12]; Glutamate 10 uM,1.00 and 0.86
same,FRET response amplitude,[12]; Glutamate 100 uM,1.00
same,EC50,"[12]; read-out: Glutamate EC50, LBD FRET, normalized to saturating (1 mM) glutamate, unit inferred",0.64 ± 0.1 µM
same,% Dimerization,"[13]; SNAP-mGluR3-C127A in presence of the ligand, single replicates per experiment day",83.23% and 72.86% and 68.26% and 70.70% and 67.67% and 71.63%
same,effect of ligand on dimerization (SiMPull),[13]; saturating concentration,increased dimerization
same,Calcium response amplitude,[14]; Glutamate 1 nM,0.00
same,Calcium response amplitude,[14]; Glutamate 10 nM,0.00
same,Calcium response amplitude,[14]; Glutamate 100 nM,0.26 and 0.30 and 0.14
same,Calcium response amplitude,[14]; Glutamate 300 nM,0.49 and 0.41
same,Calcium response amplitude,[14]; Glutamate 1 uM,0.54 and 0.70 and 0.62 and 0.63 and 0.75
same,Calcium response amplitude,[14]; Glutamate 3 uM,0.98 and 0.89 and 0.90 and 0.80 and 0.78 and 1.01
same,Calcium response amplitude,[14]; Glutamate 10 uM,0.95 and 1.00 and 0.99
same,Calcium response amplitude,[14]; Glutamate 100 uM,0.96 and 0.99 and 1.00 (2×)
same,Calcium response amplitude,[14]; Glutamate 1 mM,1.00
same,Calcium response amplitude,[15]; Glutamate 100 nM,0.028 and 0.00
same,Calcium response amplitude,[15]; Glutamate 300 nM,0.11 (2×) and 0.00 (2×)
same,Calcium response amplitude,[15]; Glutamate 3 uM,0.32 and 0.20 and 0.21 and 0.35
same,Calcium response amplitude,[15]; Glutamate 10 uM,0.27 and 0.56 and 0.69
same,Calcium response amplitude,[15]; Glutamate 100 uM,0.89 and 0.81
same,EC50,"[15]; read-out: Glutamate EC50 (micromolar), calcium imaging, Fig 3F source data",11 µM
same,EC50,"[15]; read-out: Glutamate EC50, calcium imaging, normalized to saturating (1 mM) glutamate",11 ± 0.1 µM
